The values that follow come from patent publication US10011638B2, “PTEN antagonist peptides and methods of using the same” (SHRINERS HOSPITALS FOR CHILDREN, priority 2014, dated 2018).

Like-named read-outs stand apart in the source and are kept apart here.

Test [1] relates to mice with T7 dorsal over-hemisection. As to the kind of experiment: Locomotor recovery after T7 dorsal over-hemisection SCI (BMS, grid walk, footprint). It is filed as in vivo. Conditions: vs RP; for locomotor recovery, BMS scores: s.c. 71 μg/mouse/day, 14 days, 2-5 weeks after SCI. The method, then:
(§1) Adult female C57BL/6 mice (9-10 weeks old) were deeply anesthetized with intramuscular ketamine (100 mg/kg) and intraperitoneal xylazine (15 mg/kg). A complete laminectomy was performed and the dorsal part of the spinal cord was fully exposed at T6 and T7 levels (31). A dorsal over-hemisection (1.0 mm) was performed at T7 with a 30 gauge needle and a pair of microscissors to completely sever dorsal part of the spinal cord as previously reported (29, 31). To study axon growth (FIG. 5-7), mice received daily subcutaneous injections of RP, PAP2 or PAP4 at 71 μg/mouse/day beginning two days after SCI for 14 successive days (29). Mice received BDA tracer injections into the motor cortex 3 weeks after SCI (31).
(§2) Mice were perfused 5 weeks after SCI and the spinal cord blocks around the lesion were processed for 5-HT and CST labeling. In brief, transverse sections (30 μm) 5-7 mm rostral to and caudal to the injury and parasagittal sections 4 mm rostral to and 4 mm caudal to lesion were processed for 5-HT-stained serotonergic fibers and BDA-labeled CST axons. To compare axon number among different groups, 5-HT axons were counted in the spinal cord 0-3.2 mm caudal to the lesion from all parasagittal sections in each animal. To determine functional recovery, locomotion recovery was evaluated during 5 weeks of survival by measuring the BMS two days and per week after SCI, and the grid walk performance and footprint 5 weeks after SCI. For axon quantification and behavioral analysis, 8, 9, and 9 mice were used in the RP, PAP2 and PAP4 groups, respectively.

For the next test, the target named is T1, PTEN (Homo sapiens, UniProt P60484).
T1 construct: host or cells: COS-7
As to the kind of experiment: PTEN peptide binding assay in COS-7 cells. Conditions: biotinylated peptides 15 μM, 1 hour; ABC-DAB, 405 nm; compared to BioRP. On the procedure: COS-7 cells were cultured as previously reported (29). Forty-eight hrs after transfection, cells were incubated with purified biotinylated RP or PAPs 1-4 (15 μM) for 1 hour. Following 3 washes with PBS and fixation with 4% formaldehyde, COS-7 cells were incubated in ABC and the PAP binding signals were visualized with ABC-DAB based color reactions. The intensity of reaction color in multiple wells was read with a 96-well plate reader at 405 nm. The binding experiments were carried out in 6-12 replicates.

The test system of test [2] is mice with T7 dorsal over-hemisection. Nature of the test: Growth of 5-HT and CST fiber tracts after T7 dorsal over-hemisection SCI. It counts as in vivo. Conditions: s.c. 71 μg/mouse/day, 5 weeks after SCI; for density of 5-HT fibers in the spinal cord 5-7 mm caudal to the lesion: 14 days from 2 days after SCI, vs RP; for CST sprouts immediately rostral to the lesion (parasagittal sections) / density of ectopic CST sprouts lateral to the dorsal CST, 5-7 mm rostral to the lesion / growth of CST sprouts caudal to the lesion: 14 days. On the procedure:
as §1, §2

Another test concerns DRG neurons. As to the kind of experiment: Neurite outgrowth of adult DRG neurons on CNS myelin spots. It is filed as cell-based, mice. Conditions: chosen from dose-response curve of neurite outgrowth assays of DRGs on CNS myelin. The method, then: (§3) Neurite outgrowth from neurons was performed in DRG and CGN cultures 1-5 days after growth. For DRG assay on myelin spots, the center of each culture coverslip was spotted with 2 μl of purified CNS myelin (200 μg/ml), which contains a number of axon growth inhibitors (11). DRGs were dissected out from C57BL/6 mice aged 8-10 weeks. After incubation with collagenase and 0.25% trypsin, dissociated DRG neurons were plated onto plastic coverslips in 24-well plates and grown in culture medium as previously reported (25, 48). Primary CGN cultures were prepared from cerebelli of postnatal 7-9 day C57BL/6 mice as reported previously (25, 29).
(§4) After plating, dissociated neurons were treated with vehicle, RP (10 μg/ml), PAP1 (2.5 μg/ml), PAP2 (10 μg/ml), PAP3 ([…]), PAP4 (6.7 μg/ml) and PAP5 (5 μg/ml). The doses of PAPs were chosen based on the dose-response curve obtained from neurite outgrowth assays of DRGs on CNS myelin. Neurons were fixed 5 days (DRGs) or 24 hrs (CGNs) after plating and stained for Tuj1. Images of each culture were captured with a Nikon image collecting system and neurite outgrowth was quantified with Photoshop and NIH image software (25). The total neurite length of DRGs per myelin spot was determined from 5-8 representative experiments. The neurite length of CGNs was measured as previously reported (25, 29). To determine the cellular distribution of PTEN, DRGs were stained with anti-PTEN and anti-Tuj1l antibodies in selected coverslips.

Another test has as its system SCI rats. Conditions: cited from earlier work.
The next test has as its system CGNs. As to the kind of experiment: Neurite outgrowth of cerebellar granular neurons (CGNs) on CNS myelin. It counts as cell-based, mice. Conditions: 24 hrs after plating; myelin 50 μg/ml; compared to vehicle. The method, then: as §3
as §4, with “To determine the cellular distribution of PTEN, DRGs were stained with anti-PTEN and anti-Tuj1l antibodies in selected coverslips.” left out

T1 sequence (P60484 whole entry, species assumed): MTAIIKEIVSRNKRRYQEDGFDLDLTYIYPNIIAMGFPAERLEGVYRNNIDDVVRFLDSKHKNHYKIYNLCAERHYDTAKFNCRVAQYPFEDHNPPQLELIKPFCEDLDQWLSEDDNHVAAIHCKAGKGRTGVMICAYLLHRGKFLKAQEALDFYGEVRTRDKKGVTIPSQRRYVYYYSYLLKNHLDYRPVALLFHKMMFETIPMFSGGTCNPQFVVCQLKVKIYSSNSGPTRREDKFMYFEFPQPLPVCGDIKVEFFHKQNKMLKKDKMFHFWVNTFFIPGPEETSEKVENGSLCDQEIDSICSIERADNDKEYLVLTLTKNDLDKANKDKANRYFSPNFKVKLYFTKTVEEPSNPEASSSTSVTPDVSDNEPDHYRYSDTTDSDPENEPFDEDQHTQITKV

For the substance TVEEPSNPEASSSTSVTPD [PAP4], the “stride length of the hindpaws” value in test [1] (footprints 5 weeks after injury) is reported as “enhanced stride length”. In addition, the “locomotor recovery, BMS scores” value in test [1] is listed as “improve locomotor recovery”. Besides, in the test with PTEN, the “peptide binding to COS-7 cells transfected with PTEN” value (from here on “peptide binding”) is given as “higher binding affinity than PAP2”. In addition, in test [2], the “density of 5-HT fibers in the spinal cord 5-7 mm caudal to the lesion” value was “significantly increased”; the “CST sprouts immediately rostral to the lesion (parasagittal sections)” value is reported as “very high density”; the “density of ectopic CST sprouts lateral to the dorsal CST, 5-7 mm rostral to the lesion” value is listed as “Increased density”; the “growth of CST sprouts caudal to the lesion” value was “terminated rostral to the lesion epicenter”. This substance also showed an Optimal dose in the test on DRG neurons of 5 µg/mL.

As to bisperoxovanadium [bpV], the functional recovery result with SCI rats (intrathecal) was “improved functional recovery”. In the test on SCI rats (systemic), the functional recovery result is on record as “improved functional recovery”; the “levels of phosphorylated Akt and S6 in the lesioned spinal cord” value was “elevated the levels of phosphorylated Akt and S6”.

Turning to PENEPFDEDQHSQITKV [PAP5], the Optimal dose in the test on DRG neurons worked out at 5 µg/mL. Further, the “neurite length of CGNs cultured on CNS myelin” value in the test on CGNs is recorded as “but not with PAP5, significantly increased”.

As for IHCKAGKGRTGVMIC [PAP3], in the test with PTEN, the “peptide binding” value was “higher binding affinity than PAP2”. Moreover, in the test with DRG neurons, the Optimal dose was determined as 5 µg/mL.

Take MTAIIKEIVSRNKRR [PAP1]: the “peptide binding” value with PTEN was “higher binding affinity than PAP2”. In the test with DRG neurons, this substance came in with an Optimal dose of 2.5 µg/mL.

KHKNHYKIYNLCAE [PAP2]: the “locomotor recovery, BMS scores” value in test [1] is given as “improve locomotor recovery”. Moreover, in test [2], the “density of 5-HT fibers in the spinal cord 5-7 mm caudal to the lesion” value was “significantly increased”; the “CST sprouts immediately rostral to the lesion (parasagittal sections)” value was “higher density”; the “density of ectopic CST sprouts lateral to the dorsal CST, 5-7 mm rostral to the lesion” value is on record as “Increased density”; the “growth of CST sprouts caudal to the lesion” value is reported as “A small number of CST sprouts grew into the distal spinal cord”. The Optimal dose with DRG neurons came to 10 µg/mL.
